# Earlier results as cited in US20220125711A1, “CANNABINOID-CONTAINING ORAL THIN FILM FORMULATIONS” (JDEM Properties, LLC, priority 2020, published 2022).
# Tested on: Drosophila
# Settings: dietary theanine, dose-dependent (Ki and Lim)
smiles,measurement,value
CCNC(=O)CC[C@H](N)C(=O)O [L-theanine],daily amount of sleep,markedly increased
same,latency to sleep onset,decreased
